In US20230152324A1, “TUMOR-INTRINSIC NLRP3 INFLAMMASOME SIGNALING PATHWAY AS A GENETIC AND FUNCTIONAL BIOMARKER FOR IMMUNOTHERAPY RESPONSE” (Duke University, priority 2021, published 2023):

Test system: mice bearing BRAF^V600EPTEN^−/− melanomas
Assay: Lung fibronectin expression (qrt-PCR, IHC) in BRAFV600EPTEN−/− melanoma-bearing mice
Type: in vivo, mouse
Conditions: anti-PD-1 vs anti-PD-1/Wnti treated tumor-bearing mice
Description: Prior studies have shown that the arrival of […] (HPC) expressing vascular endothelial growth factor receptor-1 (VEGFR1) in the lung as well as increased fibronectin expression by local fibroblasts contribute to the formation of a pre-metastatic niche that subsequently supports metastatic progression (35). Using multi-parameter flow cytometry, we indeed observed an increase in a c-kit^+CD133^+CD34^+VEGFR1^+ HPC (VEGFR1^+ HPC) population in mice harboring BRAF^V600EPTEN^−/− melanomas relative to non-tumor-bearing controls. […]
Small representative tissue specimens were harvested from tumors and lungs and stored in RNAlater at −80° C. […] Total RNA was isolated by RNeasy Plus Mini Kit (Qiagen, 74134) and RNA was quantified by NanoDrop. […] All data were normalized to Actb expression and relative gene expression was quantitated based on the 2ΔΔCt method. Relative mRNA levels of the following genes were measured: Cxcl5, Cxcl1, Cxcl2, Trp2, Csf3, Il1b, Fn1, Tgfb, Tgfbr2, Spp1, and Hsp70.
Paraffin-Sections (5-μm) from primary melanomas and lung tissues were processed using standard protocols for immunohistochemistry (IHC) and immunofluorescence (IF) staining. […] PMN-MDSC quantitation by Ly6G-staining, and CD8^+ T cell quantitation by CD8a-staining were performed at 20× magnification and 6-8 random fields were averaged per section over 3-4 sections per specimen. […]

Cn1c(=O)c2c(ncn2CC(=O)Nc2ccc(-c3ccccc3)nn2)n(C)c1=O [ETC-159]
tumor-dependent upregulation of fibronectin expression levels in the lungs: reversed
